Like-named read-outs stand apart in the source and are kept apart here. Ends that are not written are not given here. Peptide text beside a SMILES is read from it. * marks the point of attachment. Cbz = O=C(OCc1ccccc1)*
What was measured:
[1] = tested on: immature DCs presenting to epitope-specific CTL clones; experiment: ELISPOT cross-presentation assay with immature DCs; type: cell-based, Human; settings: IFN-gamma ELISPOT, n≥5 donors; for change of B57-KF11 cross-presentation (CTL response) upon inhibitor pretreatment, increase: immature DCs pre-incubated 45 minutes with 10μM MG132, 5μM E64 or epoxomicin before p24 protein; for change of B57-ISW9 cross-presentation (CTL response) upon inhibitor pretreatment, increase: immature DCs pre-incubated 45 minutes with 10μM MG132 or 5μM E64 before p24 protein
Protocol: (§1) Human peripheral blood mononuclear cells (PBMCs) were isolated by Ficoll-Hypaque (Sigma-Aldrich) density centrifugation. Monocytes were enriched using CD14+ magnetic isolation kits (StemCell) and differentiated into DCs and Møs during a 6-day culture. DCs were cultured in AIM-V media with 1% human serum AB (Gemini Bio-Products) supplemented with 20ng/mL IL-4 and 10ng/mL GM-CSF (CellGenix). On days 2 and 4, fresh IL-4 and GM-CSF were added. Møs were cultured in ultra low attachment plates (Corning) in AIM-V media with 10% human serum AB. Where indicated, maturation of DCs and Møs was induced by TLR ligand stimulation with 2μg/mL LPS, 1μg/mL CL097, or 1μg/mL R848 (Invivogen) for 2 days. Epitope-specific CTL clones were maintained in the presence of 50U/mL IL-2, using 0.1μg/mL CD3-specific mAb 12F6, and irradiated feeder cells as stimulus for T cell proliferation.
(§2) Immature DCs and Møs were exposed to recombinant HIV-1 p24-protein, HIV-1 p55-protein or control protein (Protein Sciences Corporation, USA) for 1hr at 37°C. Where indicated, cells were pre-incubated for 45 minutes with inhibitors for proteasome (10μM MG132 (Enzo Life Sciences)) or cysteine proteases (5μM E64 (Sigma-Aldrich)). Cells pulsed with equivalent molar concentrations of the optimal epitopes were used as controls for antigen presentation and CTL clone specificity. DCs and Møs were thoroughly washed and cultured overnight with epitope-specific CTL clones at a 2:1 effector-to-target ratio in 96-well plates (Millipore) coated with anti-IFN-y mAb 1-D1K (Mabtech). ELISPOT plates were washed and developed as described previously.

[2] = tested on: immature Møs presenting to epitope-specific CTL clones; experiment: ELISPOT cross-presentation assay with immature Møs; type: cell-based, Human; settings: IFN-gamma ELISPOT, n≥5 donors; for change of B57-ISW9 cross-presentation upon inhibitor pretreatment: immature Møs pre-incubated 45 minutes with 10μM MG132 or 5μM E64 before p24 protein; for change of B57-KF11 CTL responses upon inhibitor pretreatment, decrease / change of B57-TW10 CTL responses upon inhibitor pretreatment, decrease: immature Møs pre-incubated with 10μM MG132, epoxomicin or 5μM E64 before p24 protein
Protocol: as §1, §2

[3] = Intracellular stability of optimal epitopes, immature DC extracts; type: in vitro ADME, Human; settings: RP-HPLC; for stability rate at pH4.0 relative to pH7.4: immature DC extract, pH4.0, 37°C, 60-minute incubation, three independent experiments; for half-life: human, cells or culture medium, 1nmol peptide, 15μg immature DC whole cell extract, aliquots 0, 10, 30, 60 minutes, one-phase exponential decay
Protocol: The proteolytic activities of cathepsin S (cell, 50μM; extracts, 10μM Z-VVR-AMC), omni cathepsins (cell, 50μM; extracts, 50μM Z-FR-AMC), cathepsin D&E (extracts, 10μM Mca-[…]-Dnp, Enzo Life Sciences), and cathepsin B (extracts, 50μM Z-RR-AMC, Bachem) were measured by cleavage of peptide-specific fluorogenic substrates. […] For cell extracts, equivalent amounts as determined by total protein concentration were used in reaction buffer (50mM sodium chloride, 50mM potassium phosphate, 2mM DTT, 2mM EDTA; pH 7.4, pH5.5 or pH4.0, respectively). The rate of fluorescence emission, which is proportional to the proteolytic activity, was measured every 5 minutes at 37°C in a Victor-3 Plate Reader (Perkin Elmer).
One nmol of highly purified peptide was degraded in 15μg of whole cell extracts at 37°C in degradation buffer at pH7.4 or pH4.0 [37]. Aliquots were taken at 0, 10, 30, and 60 minutes, and the reaction was stopped with 2.5μL of 100% TFA. The remaining peptide at each time point was quantified by reversed-phase HPLC (RP-HPLC; Waters). 100% represents the amount of peptide detected at time point 0 calculated as the area under the peptide peak. A stability rate of each peptide was calculated by a nonlinear regression (one-phase exponential decay) of the degradation profile obtained over a 60-minute incubation. Peptides incubated in buffer without cell extracts were used as controls.

[4] = In vitro peptide degradation assay with mass spectrometry, immature DC extracts; type: in vitro ADME, Human; settings: immature DC whole cell extracts, 120 minutes, pH7.4, pH5.5 and pH4.0, 37°C; LC-MS cleavage patterns; representative of two experiments
[5] = Intracellular stability of optimal epitopes, DC and Mø extracts; type: in vitro ADME, Human; settings: 37°C
Protocol: One nmol of highly purified peptide was degraded in 15μg of whole cell extracts at 37°C in degradation buffer at pH7.4 or pH4.0 [37]. Aliquots were taken at 0, 10, 30, and 60 minutes, and the reaction was stopped with 2.5μL of 100% TFA. The remaining peptide at each time point was quantified by reversed-phase HPLC (RP-HPLC; Waters). 100% represents the amount of peptide detected at time point 0 calculated as the area under the peptide peak. A stability rate of each peptide was calculated by a nonlinear regression (one-phase exponential decay) of the degradation profile obtained over a 60-minute incubation [35, 44]. Peptides incubated in buffer without cell extracts were used as controls.

## CC(C)C[C@@H](C=O)NC(=O)[C@H](CC(C)C)NC(=O)[C@H](CC(C)C)NC(=O)OCc1ccccc1 [MG132] (Cbz-Leu-Leu-Leu-aldehyde)
[1]
  change of B57-KF11 cross-presentation (CTL response) upon inhibitor pretreatment, increase: 4 fold
  change of B57-ISW9 cross-presentation (CTL response) upon inhibitor pretreatment, increase: 43 fold
[1]; immature DCs pre-incubated 45 minutes with 10μM MG132 before p24 protein
  change of B57-TW10-specific CTL responses upon inhibitor pretreatment, decrease: approximately 3 fold
[2]
  change of B57-ISW9 cross-presentation upon inhibitor pretreatment: not affected
  change of B57-KF11 CTL responses upon inhibitor pretreatment, decrease: 2 fold
  change of B57-TW10 CTL responses upon inhibitor pretreatment, decrease: 3 fold

## CC[C@H](C)[C@H](NC(=O)[C@H](C)N)C(=O)N[C@@H](Cc1ccccc1)C(=O)N[C@@H](CCC(N)=O)C(=O)N[C@@H](CO)C(=O)N[C@@H](CO)C(=O)N[C@@H](CCSC)C(=O)N[C@H](C(=O)N[C@@H](CCCCN)C(=O)O)[C@@H](C)O [A11-ATK9]
[3]
  stability rate at pH4.0 relative to pH7.4: dramatically reduced

## CC[C@H](C)[C@H](NC(=O)[C@H](CCCCN)NC(=O)[C@H](CCC(=O)O)NC(=O)[C@H](Cc1c[nH]c2ccccc12)NC(=O)[C@@H](N)CCCNC(=N)N)C(=O)N[C@@H](CCCNC(=N)N)C(=O)N[C@@H](CC(C)C)C(=O)N[C@@H](CCCNC(=N)N)C(=O)N1CCC[C@H]1C(=O)NCC(=O)NCC(=O)N[C@@H](CCCCN)C(=O)N[C@@H](CCCCN)C(=O)N[C@@H](CCCCN)C(=O)N[C@@H](Cc1ccc(O)cc1)C(=O)N[C@@H](CCCCN)C(=O)N[C@@H](CC(C)C)C(=O)O [HIV-1 p17-derived peptide]
[4]
  degradation of A03-RK9 within the p17-derived peptide: minimal degradation

## ISPRTLNAW [B57-ISW9]
[3]
  stability rate at pH4.0 relative to pH7.4: dramatically reduced

## CC[C@H](C)[C@H](NC(=O)[C@H](CCC(N)=O)NC(=O)[C@H](CCC(=O)O)NC(=O)[C@H](CCC(N)=O)NC(=O)[C@H](CC(C)C)NC(=O)[C@H](CC(N)=O)NC(=O)[C@H](CO)NC(=O)[C@@H](N)[C@@H](C)O)C(=O)N[C@@H](C)C(=O)N[C@@H](Cc1c[nH]c2ccccc12)C(=O)O
[5]; 1nmol peptide, 15μg immature DC or Mø extracts, pH7.4 and pH4.0 (both compartments), RP-HPLC stability rate, mean of three independent experiments
  cytosolic and lysosomal stability relative to B57-TW10, fold reduced: 7- to 8 fold

## CC[C@H](C)[C@H](NC(=O)[C@H]([C@@H](C)CC)N(C)C(C)=O)C(=O)N[C@H](C(=O)N[C@@H](CC(C)C)C(=O)[C@@]1(C)CO1)[C@@H](C)O [epoxomicin]
[1]
  change of B57-KF11 cross-presentation (CTL response) upon inhibitor pretreatment, increase: 11 fold
[2]
  change of B57-KF11 CTL responses upon inhibitor pretreatment, decrease: 2 fold
  change of B57-TW10 CTL responses upon inhibitor pretreatment, decrease: 3 fold

## CC[C@H](C)[C@H](NC(=O)[C@@H](NC(=O)[C@H](CCC(=O)O)NC(=O)[C@@H]1CCCN1C(=O)[C@H](CO)NC(=O)[C@H](Cc1ccccc1)NC(=O)[C@H](C)NC(=O)[C@@H](N)CCCCN)C(C)C)C(=O)N1CCC[C@H]1C(=O)N[C@@H](CCSC)C(=O)N[C@@H](Cc1ccccc1)C(=O)O [B57-KF11]
[3]; pH 4, degradation buffer pH4.0, 37°C, read-out: half-life at pH4.0
  half-life: 1.9 min
[3]; pH 7.4, degradation buffer pH7.4, 37°C, read-out: half-life at pH7.4
  half-life: 20 min
[3]
  stability rate at pH4.0 relative to pH7.4: dramatically reduced
[3]; immature DC whole cell extract, 37°C, ratio of half-lives
  fold faster degraded at pH4.0 than at pH7.4: 10 fold

## CC(C)C[C@H](NC(=O)[C@H]1O[C@@H]1C(=O)O)C(=O)NCCCCN=C(N)N [E64]
[1]
  change of B57-KF11 cross-presentation (CTL response) upon inhibitor pretreatment, increase: no effect
  change of B57-ISW9 cross-presentation (CTL response) upon inhibitor pretreatment, increase: no effect
[2]
  change of B57-ISW9 cross-presentation upon inhibitor pretreatment: did not affect
  change of B57-KF11 CTL responses upon inhibitor pretreatment, decrease: did not affect
  change of B57-TW10 CTL responses upon inhibitor pretreatment, decrease: did not affect

## FSPEVIPMF [B57-FF9]
[5]; extracts of DCs and Møs, RP-HPLC, three independent experiments
  stability rate compared with overlapping epitope B57-KF11: comparable
[3]
  stability rate at pH4.0 relative to pH7.4: dramatically reduced
